According to patent US6605589B1, “Cathepsin inhibitors in cancer treatment” (Parker Hughes Institute, priority 2000, dated 2003):

Experiments:
Type in all cases: cell-based, human
KM-3 (pre-B ALL) = test: In vitro clonogenic assay; details: 24 hours
Experimental: (§1) In vitro clonogenic assays were carried out to determine the cytotoxic activity of the cathepsin inhibitor I (CATI-1) (Z-Phe-Gly-NHO-Bz) against cancer cells. The cancer cell lines used in the assay were U373 (glioblastoma), BT-20 (breast cancer), SQ20B (squamous cell carcinoma), RS4;11 (pro-B ALL), ALL-1 (pre-pre-B ALL), KM-3, MOLT-3 (T-ALL), JURKAT (T-ALL), K-562 (CML), HL-60 (AML), DAUDI (NHL), RAMOS (NHL) and RAJI (NHL). Each cell line was treated under several concentrations of CATI-1 for 24 hours, washed with serum free medium and resuspended in clonogenic medium having 10% fetal bovine serum and 0.9% methylcellulose. Resuspended cells were plated in duplicate 35-mm Petri dishes at 10,000 to 20,000 cells per dish and cultured at 37° C. in a humidified 5% CO2 atmosphere for 5 to 7 days.
(§2) Images of colonies in each dish were taken by a digital camera (Princeton Instruments, Inc.) linked to a microscope (Nikon Diaphot 200). Colony numbers were determined using an inverted phase microscope and percent inhibition of colony formation determined using the formula:
(§3) % inhibition=(1−(colony number in test sample/colony number in control sample))×100.

MOLT-3 (T-ALL) = test: In vitro clonogenic assay; details: for %, inhibition / Mean no, of colonies: 24 hours
Experimental: as §1, §2, §3

U373 (brain tumor) = test: In vitro clonogenic assay; details: 24 hours
Experimental: as §1, §2, §3

RS4;11 (pro-B ALL) = test: In vitro clonogenic assay; details: for %, inhibition / Mean no, of colonies: 24 hours
Experimental: as §1, §2, §3

RAMOS (NHL) = test: In vitro clonogenic assay; details: for %, inhibition / Mean no, of colonies: 24 hours
Experimental: as §1, §2, §3

ALL-1 (pre-pre B ALL) = test: In vitro clonogenic assay; details: for %, inhibition / Mean no, of colonies: 24 hours
Experimental: as §1, §2, §3

DAUDI (NHL) = test: In vitro clonogenic assay; details: CATI-1 10 uM, 24 hours
Experimental: as §1, §2, §3

RAJI (NHL) = test: In vitro clonogenic assay; details: for %, inhibition / Mean no, of colonies: 24 hours
Experimental: as §1, §2, §3

K-562 (CML) = test: In vitro clonogenic assay; details: for %, inhibition / Mean no, of colonies: 24 hours
Experimental: as §1, §2, §3

SQ20B (neck cancer) = test: In vitro clonogenic assay; details: 24 hours
Experimental: as §1, §2, §3

JURKAT (T-ALL) = test: In vitro clonogenic assay; details: for %, inhibition / Mean no, of colonies: 24 hours
Experimental: as §1, §2, §3

HL-60 (AML) = test: In vitro clonogenic assay; details: CATI-1 10 uM, 24 hours
Experimental: as §1, §2, §3

[1] = system: all tested cancer cell lines; test: Cytometric apoptosis detection assays, FIG. 2; details: FIG. 2 (SQ-20B, HeLa, PC-3, BT-20)
Experimental: The percentages indicate the fraction of cells at an early stage of apoptosis (lower right quadrant), as measured by single MC540 fluorescence, and the fraction of cells at an advanced stage of apoptosis (upper right quadrant).
Quantitative flow cytometric apoptosis detection assays were performed on BT-20 (breast cancer), PC-3 (prostate cancer), U373 (glioblastoma), SQ20B (squamous cell carcinoma), HeLa (cervix cancer), and DU145 (prostate cancer). Just prior to the assay, one mg/ml stock solutions of MC540 (Sigma, St. Louis, Mo.) and PI (Sigma, St. Louis, Mo.) were filtered through a 0.22 μm filter and stored at 4° C. in the dark. CATI-1 treated cell lines was harvested, and 1×10^6 cells suspended and stained with 5 μg/ml MC540 and 10 μg/ml propidium iodide (PI) (Uckun et al. (1996) Science, 273: 1096-1100) at 4° C. in the dark for 24 hours. Stained cells were analyzed with a FACStar Plus flow cytometer (Becton Dickinson, San Jose, Calif.) using the 488-nm excitation from an argon laser. […] In each experiment approximately 10,000 cells were analyzed by FACS and the percentage of cells at early (MC540 fluorescence only) and advanced (dual MC540 plus PI fluorescence) stages of apoptosis obtained.

[2] = read-out: IC50 (colony formation)

Compound: O=C(CNC(=O)[C@H](Cc1ccccc1)NC(=O)OCc1ccccc1)NOC(=O)c1ccccc1 [CATI-1, Z-Phe-Gly-NHO-Bz]
- %, inhibition (KM-3 (pre-B ALL); CATI-1 10 uM): 79.2%
- Mean no, of colonies (KM-3 (pre-B ALL); CATI-1 10 uM): 578 (520, 636)
- %, inhibition (KM-3 (pre-B ALL); CATI-1 20 uM): 100%
- Mean no, of colonies (KM-3 (pre-B ALL); CATI-1 20 uM): 0 (0, 0)
- %, inhibition (MOLT-3 (T-ALL); CATI-1 10 uM): 90.8%
- Mean no, of colonies (MOLT-3 (T-ALL); CATI-1 10 uM): 194 (124, 264)
- %, inhibition (MOLT-3 (T-ALL); CATI-1 20 uM): 99.1%
- Mean no, of colonies (MOLT-3 (T-ALL); CATI-1 20 uM): 18 (16, 20)
- %, inhibition (MOLT-3 (T-ALL); CATI-1 35 uM): 100%
- Mean no, of colonies (MOLT-3 (T-ALL); CATI-1 35 uM): 0 (0, 0)
- IC50 (MOLT-3 (T-ALL); [2]): 5.5 µM
- %, inhibition (U373 (brain tumor); CATI-1 30 uM): 97%
- Mean no, of colonies (U373 (brain tumor); CATI-1 30 uM): 76 (84, 67)
- %, inhibition (U373 (brain tumor); CATI-1 50 uM): 100%
- Mean no, of colonies (U373 (brain tumor); CATI-1 50 uM): 0
- %, inhibition (RS4;11 (pro-B ALL); CATI-1 10 uM): 10.6%
- Mean no, of colonies (RS4;11 (pro-B ALL); CATI-1 10 uM): 2676 (2160, 3192)
- %, inhibition (RS4;11 (pro-B ALL); CATI-1 20 uM): 96.8%
- Mean no, of colonies (RS4;11 (pro-B ALL); CATI-1 20 uM): 96 (116, 76)
- %, inhibition (RS4;11 (pro-B ALL); CATI-1 35 uM): 100%
- Mean no, of colonies (RS4;11 (pro-B ALL); CATI-1 35 uM): 0 (0, 0)
- IC50 (RS4;11 (pro-B ALL); [2]): 14.6 µM
- %, inhibition (RAMOS (NHL); CATI-1 10 uM): 47.1%
- Mean no, of colonies (RAMOS (NHL); CATI-1 10 uM): 1442 (1344, 1540)
- %, inhibition (RAMOS (NHL); CATI-1 20 uM): 78.2%
- Mean no, of colonies (RAMOS (NHL); CATI-1 20 uM): 594 (660, 528)
- %, inhibition (RAMOS (NHL); CATI-1 35 uM): 100%
- Mean no, of colonies (RAMOS (NHL); CATI-1 35 uM): 0 (0, 0)
- IC50 (RAMOS (NHL); [2]): 10.1 µM
- %, inhibition (ALL-1 (pre-pre B ALL); CATI-1 10 uM): 80.4%
- Mean no, of colonies (ALL-1 (pre-pre B ALL); CATI-1 10 uM): 338 (348, 328)
- %, inhibition (ALL-1 (pre-pre B ALL); CATI-1 20 uM): 99.6%
- Mean no, of colonies (ALL-1 (pre-pre B ALL); CATI-1 20 uM): 7 (6, 8)
- %, inhibition (ALL-1 (pre-pre B ALL); CATI-1 35 uM): 100%
- Mean no, of colonies (ALL-1 (pre-pre B ALL); CATI-1 35 uM): 0 (0, 0)
- IC50 (ALL-1 (pre-pre B ALL); [2]): 6.2 µM
- %, inhibition (DAUDI (NHL)): 100%
- Mean no, of colonies (DAUDI (NHL)): 0 (0, 0)
- %, inhibition (RAJI (NHL); CATI-1 10 uM): 86.5%
- Mean no, of colonies (RAJI (NHL); CATI-1 10 uM): 168 (124, 212)
- %, inhibition (RAJI (NHL); CATI-1 20 uM): 97.4%
- Mean no, of colonies (RAJI (NHL); CATI-1 20 uM): 32 (40, 24)
- %, inhibition (RAJI (NHL); CATI-1 35 uM): 100%
- Mean no, of colonies (RAJI (NHL); CATI-1 35 uM): 0 (0, 0)
- IC50 (RAJI (NHL); [2]): 5.8 µM
- %, inhibition (K-562 (CML); CATI-1 10 uM): 19.0%
- Mean no, of colonies (K-562 (CML); CATI-1 10 uM): 3806 (3980, 3632)
- %, inhibition (K-562 (CML); CATI-1 20 uM): 76.9%
- Mean no, of colonies (K-562 (CML); CATI-1 20 uM): 1086 (1196, 976)
- %, inhibition (K-562 (CML); CATI-1 35 uM): 99.8%
- Mean no, of colonies (K-562 (CML); CATI-1 35 uM): 10 (12, 8)
- IC50 (K-562 (CML); [2]): 15.4 µM
- %, inhibition (SQ20B (neck cancer); CATI-1 50 uM): 40%
- Mean no, of colonies (SQ20B (neck cancer); CATI-1 50 uM): 1838 (1732, 1944)
- %, inhibition (SQ20B (neck cancer); CATI-1 100 uM): 90%
- Mean no, of colonies (SQ20B (neck cancer); CATI-1 100 uM): 306 (280, 332)
- %, inhibition (JURKAT (T-ALL); CATI-1 10 uM): 10.0%
- Mean no, of colonies (JURKAT (T-ALL); CATI-1 10 uM): 5110 (5260, 4960)
- %, inhibition (JURKAT (T-ALL); CATI-1 20 uM): 98.9%
- Mean no, of colonies (JURKAT (T-ALL); CATI-1 20 uM): 64 (40, 88)
- %, inhibition (JURKAT (T-ALL); CATI-1 35 uM): 100%
- Mean no, of colonies (JURKAT (T-ALL); CATI-1 35 uM): 0 (0, 0)
- IC50 (JURKAT (T-ALL); [2]): 14.5 µM
- %, inhibition (HL-60 (AML)): 100%
- Mean no, of colonies (HL-60 (AML)): 0 (0, 0)
- induction of apoptosis [1]: induced apoptosis
